{"source": "patent US6465205B2", "about": "“In vitro cell culture device including cartilage and methods of using the same” (The Research Foundation of State University of New York, priority 1999, dated 2002)", "key": {"[1]": {"tested_on": "matrix metalloproteinases (MMP-2, MMP-9) in chondrocyte-conditioned medium", "assay": "Gelatin zymography for MMP activity", "format": "biochemical, bovine or porcine", "procedure": "Cell viability and number were determined by Trypan blue staining and counting using a hemocytometer. Chondrocytes were plated on collagen inserts (Costar Transwell, VWR, Pittsburgh, Pa.) at 20-40×10^6 cells/well in DMEM/F12 containing antibiotics, 10% FBS, and 50 μg/ml ascorbic acid (prepared fresh and added every other day). After the chondrocytes had formed a layer of extracellular matrix (approximately 2 weeks), the medium was switched to serum free (DMEM/F12 with antibiotics, 5 μg/ml insulin, 15 μg/ml bovine pituitary extract, 10 μg/ml epidermal growth factor, 5 μg/ml transferrin, 1 μM hydrocortisone, 10^−8 M retinol, and ascorbic acid). Cultures were fed from the bottom every 3-4 days. Medium was collected from chondrocyte cultures on days 3, 5, 7, 10, and 14 after switching from 10% FBS-containing medium to SFM. […]\nCCM or SFM, obtained as described above, was mixed with 2× sample buffer (20 mM DTT, 4% SDS, 50 mM Tris, 20% glycine, 0.002% Bromophenol blue), loaded without prior heating, and electrophoresed under non-reducing conditions at 4° C. for approximately 4 hours under constant voltage. […] Gels were rinsed twice with distilled water then stained for 1 hour in Coomassie blue stain, followed by destaining in water/methanol/acetic acid (6:3.5:0.5) until clear areas of enzyme activity were detected against a blue background. […]"}, "[2]": {"tested_on": "respiratory epithelial cells", "assay": "Proliferation of respiratory epithelial cells (cell number by hemocytometer count)", "format": "cell-based, porcine", "description": "Porcine tracheal tissue obtained at necropsy was cleaned of debris, rinsed thoroughly with PBS, and epithelium and submucosa removed and soaked overnight at 4° C. in MEM containing antibiotics/antimycotics. Dissociated respiratory epithelial cells were isolated using elastase digestion as described by Hicks et al. (“Rapid Isolation of Upper Respiratory Epithelial Cells,” Mol. Biol. Cell., 5(Suppl.): 118a (Abstract), (1995); Hicks et al., “Isolation and Characterization of Basal Cells from Human Upper Respiratory Epithelium,” Exp. Cell Res. 237:357-363 (1997), which are hereby incorporated by reference) and plated on top of type I collagen-coated 35 mm petri dishes at 0.2×10^6 cells/cm^2 in serum free medium. In selected experiments, cells were cultured in Biocoat type I collagen-coated 24 well plates. Medium was collected for gelatin zymography as described above.\nThe proliferative effects of CCM on REC were assessed by addition of CCM diluted 1:1 with SFM. REC cultures grown on type I collagen were fed 0.1 ml CCM or control SFM daily, and media were changed completely every 3 days. […] After incubation at 37° C. for 20 minutes, REC were again washed with PBS/10% FBS, then resuspended in PBS and an aliquot counted using Trypan blue dye exclusion to determine viability and cell number. […]"}}}
{"smiles": "O=C(O)CN(CCN(CC(=O)O)CC(=O)O)CC(=O)O", "note": "[EDTA, ethylenediamine tetraacetic acid]", "values": [{"measurement": "MMP enzyme activity on zymogram developed in presence of chelator", "setting": "[1]; developing buffer containing 20 mM EDTA (FIG. 5B)", "value": "enzyme activity was abolished"}]}
{"smiles": "CNC(=O)[C@H](Cc1c[nH]c2ccccc12)NC(=O)[C@@H](CC(=O)NO)CC(C)C", "note": "[GM6001]", "values": [{"measurement": "Effect on REC proliferation", "setting": "[2]; 5 nM, REC cultured with or without CCM, cell number after 7 days", "value": "nor was proliferation positively affected"}, {"measurement": "Restoration of REC proliferation to control levels", "setting": "[2]; concentrations of 10 and 50 W, in presence of CCM (FIG. 8)", "value": "proliferation was not restored to control levels"}, {"measurement": "Block of MMP (marker protein) activity in pooled CCM by gelatin zymography", "setting": "[1]; 5 nM, medium of day 3 and day 7 (FIGS. 7A-B)", "value": "did not block marker protein activity"}]}
